# From US20020048580A1, “Method of inducing lung branching” (Institut National De La Sante Et De La Recherche Medicale, priority 2000, published 2002)
# “Also recorded” adds a separate entry of the source. Where two headings read alike, the source gives them in different places.
# What was measured:
# E8.0 embryos = test: Whole embryo culture, primary lung bud and oesophagotracheal fold formation; type: cell-based, mouse
# Protocol: Embryos were collected at E8.0 (i.e. 36 hours prior to the formation of primary lung buds and tracheal diverticulum; Kaufman, M. H., The Atlas of Mouse Development, London Academic Press (1992)), and cultured for 48 hours (i.e. until the equivalent of E9.5 in vivo) either in the presence of the pan-RAR antagonist, Compound VIII (Chazaud, C., et al., Development 126:2589-2596 (1999); Wendling, O., et al., Development 127:1553-62 (2000), or in the presence of the retinoid vehicle (i.e. ethanol alone). Treatment with 10^−6 M Compound VIII, inhibited primary lung bud outgrowth (FIGS. 1A-1D; l and r) and caused a failure of oesophagotracheal fold formation (arrowheads in FIG. 1F compare with FIG. 1G). […] Therefore, a block in RA signal transduction before and at the onset of lung bud appearance inhibits the formation of the respiratory system from the primitive foregut.
# Whole embryos from CD 1×CD 1 crosses were collected at E8.0, staged and cultured according to previously described methods in the presence of retinoids or ethanol vehicle alone for 48 hours (New D.A.T., Postimplantation Mammalian Embryos: A Practical Approach, Cop, A. J. and Cockroft, D. L., eds., Oxford University Press (1990); Wendling, O., et al., Development 127:1553-62 (2000)). For morphological assessment, serial transverse histological sections were stained with hematoxylin and eosin.
# [1] = test system: E12.5 CRBPI null mutant lungs; test: ATBN in CRBPI null mutant lung explants; type: cell-based, mouse
# Excerpt: FIG. 5B. ATBN in CRBPI null mutant lungs cultured for four days in the presence of either ethanol alone (control), or 10^−6 M or 10^−7 M Compound VIII. Six explants per group, three individual experiments; * p<0.01 relative to control. Error bars represent +/− standard deviation.
# The lung at the pseudoglandular stage is a major site of expression of CRBPI in the embryo (Dollé, P., et al., Development 110:1133-1151 (1990)). In cultured E12.5 wild type lungs, CRBPI expression was increased in the presence of 10^−6 M RA and decreased by 10^−6 M Compound VIII (FIG. 5A). […]
# (§1) The mouse lines carrying the RARβ, RARγ and CRBPI null mutations and their genotyping protocols have been described previously (Lohnes, D., et al., Cell 73:643-658 (1993); Ghyselinck, N. B., et al., Int. J. Dev. Biol. 41:425-447 (1997); Ghyselinck, N. B., et al., EMBO J. 18:4903-4914 (1999)). […] Average terminal bud number (ATBN) was calculated after counting every bud in each explant at 0, 24, 48, 72 and 96 hours after the commencement of culture. Significant differences in ATBN between different groups were determined by ANOVA and Newman-Keuls multiple comparison tests according to previously described methods (Motulsky, H., Intuitive Biostatistics, New York: Oxford University Press (1995)). […]
# E11.75 wild type lungs = test: Lung explant culture, average terminal bud number (ATBN), wild type; type: cell-based, mouse; conditions: for average terminal bud number (ATBN): 4 days in culture; for retinoid-induced changes in ATBN: 10^−6 M RA and 10^−6 M Compound VIII simultaneously added
# Protocol: Lung explants from E11.75 or E12.5 embryos were cultured for 4 days, unless otherwise indicated. Control explants were cultured in the presence of the retinoid vehicle alone.
# The mouse lines carrying the RARβ, RARγ and CRBPI null mutations and their genotyping protocols have been described previously (Lohnes, D., et al., Cell 73:643-658 (1993); Ghyselinck, N. B., et al., Int. J. Dev. Biol. 41:425-447 (1997); Ghyselinck, N. B., et al., EMBO J. 18:4903-4914 (1999)). The morning of appearance of the vaginal plug was designated as E0.5. For explant culture, E11.75 and E12.5 lungs from RARβ^+/−×RARβ^+/−, RARγ^+/−×RARγ^+/−, CRBPI^−/−×CRBPI^−/− and wildtype crosses were dissected in PBS and incubated in BGJB medium (Fitton-Jackson modified, GibcoBRL), 5% delipidated fetal calf serum (FCS, GibcoBRL) and […] vitamin C (Sigma) on millipore filters (GibcoBRL), at 37° C., in the presence of 5% CO2. Half of the media, supplemented with fresh retinoids (see below), was changed daily. The cultured lung buds reproducibly grew and branched for at least seven days in culture (data not shown). Average terminal bud number (ATBN) was calculated after counting every bud in each explant at 0, 24, 48, 72 and 96 hours after the commencement of culture. Significant differences in ATBN between different groups were determined by ANOVA and Newman-Keuls multiple comparison tests according to previously described methods (Motulsky, H., Intuitive Biostatistics, New York: Oxford University Press (1995)). The synthetic retinoid Compound VIII [a specific pan RAR (α, β and γ) antagonist (Bristol-Myers-Squibb, N.J.); Chazaud, C., et al., Development 126:2589-2596 (1999); Wendling, O., et al., Development 127:1553-62 (2000)] and RA (all-trans retinoic acid) (Sigma) were diluted in ethanol and added to the culture medium at a final ethanol concentration of 0.1% at the beginning of culture and every subsequent 24 hours.
# RARβ transcripts = test: RARβ expression in lung explants (whole-mount ISH, RNAse protection); type: cell-based, mouse; conditions: for retinoid-induced changes in RARβ expression: 10^−6 M RA and 10^−6 M Compound VIII simultaneously added; for RARβ expression: 10^−6 M, E11.75 lung explants
# Protocol: FIG. 3A. Whole-mount ISH for detection of RARβ transcripts following 24 hours of exposure of E11.75 lung explants to either retinoid vehicle alone, 10^−6 M RA or 10^−6 M Compound VIII.
# FIG. 3B. RNAse protection analyses of RARβ 1/3/4, RARβ2 and vimentin transcripts in lungs explanted at E11.75 and cultured for four days in the presence of retinoids or ethanol; the explants were analyzed four hours after the last addition of the retinoids and/or ethanol to the culture media (2 μg RNA per track; exposure times, four to 24 hours).
# The expression pattern of RARβ transcripts in E11.75 lung explants cultured for 24 hours in the absence of retinoids was similar to that observed in vivo at E13.5 (FIG. 3A). […] It is also noteworthy that only limited changes in the expression of vimentin, a specific mesenchymal marker, occurred following retinoid treatment (FIG. 3B). […] In order to investigate this possibility, we compared the effects of 10^−6 M RA upon ATBN in explants from RARβ null embryos (Ghyselinck, N. B., et al., Int. J. Dev. Biol. 41:425-447 (1997)), heterozygotesi and wild type littermates. […] The explants were then treated for 48 hours with 10^−6 M RA (FIG. 3C).
# Total RNA preparation, RNAse protection assays and in situ hybridizations were performed as previously described (Chirgwin, J. M., et al., Biochemistry 18:5294-5299 (1979); Décimo, D., et al., “In situ hybridization of nucleic acid probes to cellular RNA,” in Gene Probes 2, A Practical Approach, Hames, B. D. and Higgins, S., eds.: Oxford University Press (1995) pp. 183-210; Mollard, R. and Dziadek, M., Int. J. Dev. Biol. 41:655-666 (1997); Ghyselinck, N. B., et al., Int. J. Dev. Biol. 41:425-447 (1997)). CRBPI, H4, RARβ and vimentin cDNAs have been previously described (Ghyselinck, N. B., et al., Int. J. Dev. Biol. 41:425-447 (1997); Mollard, R. and Dziadek, M., Int. J. Dev. Biol. 41:655-666 (1997)).
# [2] = test system: E12.5 RARγ wild type (+/+), heterozygote (+/−) and null (−/−) mutant lungs; test: ATBN in RARγ wild type, heterozygote and null lung explants; type: cell-based, mouse; conditions: 10^−6 M
# Protocol: FIG. 4C. E12.5 RARγ wild type (+/+), heterozygote (+/−) and null (−/−) mutant lungs from RARγ^+/−/RARγ^+/−heterozygote crosses were cultured for 24 hours in the absence of retinoids and then for 72 hours in the presence of 10^−6M Compound VIII (seven explants per group, two individual experiments). […] Error bars represent +/− standard deviation. Scale bar=100 μm.
# RARα1, RARα2 and RARγ2 transcripts are expressed ubiquitously in E13.5 lungs in vivo. […]
# as §1
# CRBPI transcripts = test: CRBPI expression in cultured lungs (RNAse protection); type: cell-based, mouse; conditions: 10^−6 M, cultured E12.5 wild type lungs
# Protocol: FIG. 5A. RNAse protection analysis of CRBPI transcripts in E11.75 wild type lungs cultured for four days in the presence of retinoids or ethanol; the explants were analyzed four hours after the last addition of the retinoids, and/or ethanol to the culture media (2 μg RNA per track; exposure times, four to 24 hours). Six experiments per group, 10 lungs per experiment.
# The lung at the pseudoglandular stage is a major site of expression of CRBPI in the embryo (Dollé, P., et al., Development 110:1133-1151 (1990)). In cultured E12.5 wild type lungs, CRBPI expression was increased in the presence of 10^−6 M RA and decreased by 10^−6 M Compound VIII (FIG. 5A). Thus, increased and decreased expression of CRBPI are correlated with retinoid-induced inhibition and stimulation of branching, respectively. To further test an involvement of CRBPI in lung morphogenesis, explants from E12.5 CRBPI null mutants (Ghyselinck, N. B., et al., EMBO J. 18:4903-4914 (1999)) were cultured in the presence of various concentrations of the pan-RAR antagonist. […]
# pulmonary alveoli = conditions: cited from earlier work; for number of pulmonary alveoli: postnatal treatment, newborn rats
# lung cultures = conditions: cited from earlier work
# [3] = test system: E12.5 RARβ wild type, heterozygote (+/−) and null (−/−) mutant lungs; test: ATBN in lung explants from RARβ null, heterozygote and wild type littermates; type: cell-based, mouse; conditions: 10^−6 M, 48 hours, vs RARβ+/− ethanol controls
# Protocol: Appearance of representative E12.5 RARβ, heterozygote (+/−) and null (−/−) mutant lungs from RARβ^+/−/RARβ^+/− crosses, cultured for 24 hours in the absence of retinoids and then 48 hours in the presence of either vehicle alone or 10^−6 M RA. The accompanying histogram depicts ATBN versus treatment at 72 hours of culture; each group consists of seven explants and is representative of two individual experiments. b1=primary bronchi; b2=secondary bronchi; db=distal bud; m=mesenchyme; * p<0.01 relative to control. Error bars represent +/− standard deviation.
# For explant culture, E11.75 and E12.5 lungs from RARβ^+/−×RARβ^+/−, RARγ^+/−×RARγ^+/−, CRBPI^−/−×CRBPI^−/− and wildtype crosses were dissected in PBS and incubated in BGJB medium (Fitton-Jackson modified, GibcoBRL), 5% delipidated fetal calf serum (FCS, GibcoBRL) and 180mg/ml vitamin C (Sigma) on millipore filters (GibcoBRL), at 37° C., in the presence of 5% CO2. Half of the media, supplemented with fresh retinoids (see below), was changed daily. […] Average terminal bud number (ATBN) was calculated after counting every bud in each explant at 0, 24, 48, 72 and 96 hours after the commencement of culture. Significant differences in ATBN between different groups were determined by ANOVA and Newman-Keuls multiple comparison tests according to previously described methods (Motulsky, H., Intuitive Biostatistics, New York: Oxford University Press (1995)).
# [4] = 10^−6 M, E8.0 embryos cultured 48 hours, vs ethanol vehicle
smiles,measurement,setting,value
CC1(C)CC=C(C#Cc2ccccc2)c2cc(/C=C/c3ccc(C(=O)O)cc3)ccc21 [Compound VIII],oesophagotracheal fold formation,E8.0 embryos; [4],failure
same,primary lung bud outgrowth,E8.0 embryos; [4],inhibited
same,ATBN,"[1]; CRBPI null lungs, 10^−7 M, four days",significant increase
same,sensitivity of CRBPI null lungs relative to wild type lungs to stimulation of distal bud formation,[1]; CRBPI null vs wild type lungs,approximately 10 fold
same,average terminal bud number (ATBN),E11.75 wild type lungs; 2×10^−6 M,significantly increased; also recorded: significant increases
same,explant size and terminal bud numbers,E11.75 wild type lungs; 10^−6 M,Increased
same,retinoid-induced changes in ATBN,E11.75 wild type lungs,prevented
same,RA-induced decrease in ATBN,E11.75 wild type lungs; 10^−6 M and 10^−7 M RA with concomitant 10^−6 M Compound VIII,negated
same,average terminal bud number (ATBN),E11.75 wild type lungs; 10^−6 M,significantly increased; also recorded: significant increases
same,average terminal bud number (ATBN),E11.75 wild type lungs; 10^−7 M,ineffective
same,average terminal bud number (ATBN),E11.75 wild type lungs; 10^−8 M,ineffective
same,retinoid-induced changes in RARβ expression,RARβ transcripts,prevented
same,RARβ expression,RARβ transcripts,decreased RARβ expression in secondary bronchi
same,differences in the stimulation of ATBN between RARγ genotype groups,[2],No significant differences
same,CRBPI expression,CRBPI transcripts,decreased
"CC1=C(/C=C/C(C)=C/C=C/C(C)=C/C(=O)O)C(C)(C)CCC1 [RA, all-trans retinoic acid]",alveolar number,pulmonary alveoli; animal models of emphysema,restores
same,number of pulmonary alveoli,pulmonary alveoli,increases
same,number of pulmonary alveoli,pulmonary alveoli; listed as retinoic acid,increase
same,Compound VIII-induced defects of lung bud outgrowth and oesophagotracheal fold formation,"E8.0 embryos; simultaneous addition of 10^−6 M Compound VIII and 10^−7 M RA, 48 hours",partially prevented
same,increased explant size and terminal bud numbers of Compound VIII treated explants,E11.75 wild type lungs; 10^−6 M Compound VIII with concomitant 10^−6 M RA,reduced
same,retinoid-induced changes in ATBN,E11.75 wild type lungs,prevented
same,average terminal bud number (ATBN),E11.75 wild type lungs; 10^−6 M,significantly decreased; also recorded: significant decrease
same,average terminal bud number (ATBN),E11.75 wild type lungs; 10^−7 M,significantly decreased; also recorded: significant decrease
same,average terminal bud number (ATBN),E11.75 wild type lungs; 10^−8 M,ineffective
same,retinoid-induced changes in RARβ expression,RARβ transcripts,prevented
same,RARβ expression,RARβ transcripts,"induced the expression of RARβ throughout the pulmonary tree, including the distal buds"
same,branching morphogenesis,lung cultures,inhibitory effect
same,ATBN,[3]; RARβ null explants,no significant difference
same,ATBN,[3]; RARβ+/− explants,significant reduction
same,ATBN,[3]; wild type explants,significant reduction
same,CRBPI expression,CRBPI transcripts,increased
